In US20120046273A1, “COMPOUNDS AND COMPOSITIONS FOR COGNITION-ENHANCEMENT, METHODS OF MAKING, AND METHODS OF TREATING” (MITHRIDION, INC., priority 2009, published 2012):

Columns and labels:
[1] = tested on: hippocampal inositol phosphate signaling pathway; test: In vivo tissue inositol phosphate signaling pathway activation, hippocampus; design: species or system rat; conditions: normal rats, dose-dependent in the dose range 0.03 mg/kg to at least 3 mg/kg
Description: Experimental compounds or drug substances were administered using standard techniques to Long Evans Hooded rats weighing 225 to 350 grams, and which had been pretreated with a subcutaneous injection of lithium chloride at a suitable dose between 3 and 10 mmoles per kg. At suitable times the animals were briefly anesthetized using 5% isoflurane and euthanized by decapitation. The brains and submaxillary salivary glands were rapidly dissected out, and the hippocampuses were dissected from the brains. The dissected tissues were homogenized in a suitable volume of ice-cold phosphate-buffered saline containing 10 mM lithium chloride, pH7.4, using a tissue homogenizer, and used immediately or frozen in aliquots at −80degC. for future use. The concentration of inositol-1-phosphate was determined in the homogenates using the IPOne TR-FRET assay (CisBio cat no 621PAPEB), following the manufacturer's instruction

[2] = target: T1, human muscarinic M1 receptors (Homo sapiens, UniProt P11229); test: Inositol phosphate production in huM1/A9L cells (IPOne TR-FRET); assay type: cell-based
T1 construct: expressed in transfected cells; host or cells: A9L cells (gift from Professor W Messer)
T1 sequence (P11229 1-460): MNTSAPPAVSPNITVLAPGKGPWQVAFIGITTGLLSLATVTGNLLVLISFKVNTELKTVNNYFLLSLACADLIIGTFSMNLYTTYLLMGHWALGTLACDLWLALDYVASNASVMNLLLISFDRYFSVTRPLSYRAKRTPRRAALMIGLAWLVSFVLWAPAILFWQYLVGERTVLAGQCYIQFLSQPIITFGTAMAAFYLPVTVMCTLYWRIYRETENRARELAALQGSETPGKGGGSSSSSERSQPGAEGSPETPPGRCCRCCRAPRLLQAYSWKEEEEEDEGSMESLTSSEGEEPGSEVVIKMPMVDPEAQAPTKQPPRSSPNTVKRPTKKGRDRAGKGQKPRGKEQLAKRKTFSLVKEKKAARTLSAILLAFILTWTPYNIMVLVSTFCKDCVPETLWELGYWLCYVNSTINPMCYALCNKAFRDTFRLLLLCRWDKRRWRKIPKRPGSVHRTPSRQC
Description: Muscarinic M1 and M3 agonist activity was evaluated by measuring the stimulation of inositol phosphate (IP) production in the presence of lithium chloride from A9L cells transfected with expression plasmids containing human muscarinic M1 and M3 receptors, respectively. The cell lines were a gift from Professor W Messer, and the methods were as described in Tejada F R et al. J. Med. Chem. 2006; 49: 7518-31 except that the assay was scaled down to run in 384 well plates, and IP was measured in the cell lysates using the non-isotopic IPOne TR-FRET assay (CIS-BIO, Inc).
Cells were grown to 90% confluence in 384 well hi-base plates (Greiner Bio-One), compounds were added at suitable concentrations in growth medium containing 10 mM LiCL, buffered with an extra 10 mM HEPES (pH7.4), and incubated for 60 minutes at 37° C. Cells were lysed and assayed for IP following the manufacturer's instructions.
The value for a full agonist is 100%, while partial agonists give values below 100%.

[3] = tested on: apomorphine induced climbing; test: Apomorphine induced climbing model of psychosis; assay type: in vivo, CD-I mice
How it was run: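 CD-I mice (1-2 months) dosed subcutaneously under isoflurane with compound or PBS vehicle (PBS or 96% PBS/4% hydroxypropyl-beta-cyclodextrin, 5 ml/kg), then 2 mg/kg apomorphine 5 min later. Climbing (≥3 paws off ground) in wire mesh cylinders scored for 1 min every 5 min over 60 min after dosing.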

[4] = tested on: A-beta 1-40 and A-beta 1-42; test: A-beta in hippocampal microdialysate; assay type: in vivo, Tg-2576 transgenic mice; conditions: Tg-2576 mice
Description: These mice have high concentrations of A-beta in their brain tissue, thought to be the cause of neuron death in Alzheimer's disease, and accumulate amyloid plaques, recapitulating one of the hallmark pathological features of Alzheimer's disease.

[5] = tested on: pooled male Sprague-Dawley rat liver microsomes; test: Metabolism by rat liver microsomes; assay type: in vitro ADME; conditions: 6 hours incubation
Description: Compounds were incubated with pooled male Sprague-Dawley rat liver microsomes (BD Biosciences, #452501) and an NADP-regenerating system in a phosphate buffer (pH 7.4) for a total of 6 hours. Aliquots were removed every 2 hours, and 1% formic acid was added to halt the reaction. Samples were centrifuged, filtered through 0.2 micron spinfilter and the amount of each compound in the supernatants was quantitated using LC/MS/MS.

[6] = tested on: pooled male human liver microsomes; test: Metabolism by human liver microsomes; assay type: in vitro ADME; conditions: 6 hours incubation
Description: Compounds were incubated with pooled male human liver microsomes (BD Biosciences, #452172) and an NADP-regenerating system in a phosphate buffer (pH 7.4) for a total of 6 hours. Aliquots were removed every 2 hours, and 1% formic acid was added to halt the reaction. Samples were centrifuged, filtered through 0.2 micron spinfilter and the amount of each compound in the supernatants was quantitated using LC/MS/MS.

[7] = rat, in vivo, po, 1 hour
in vivo = conditions: rat, po

With `Cc1noc(C2CCCNC2)n1` (racemic) [Compound 82, 3-Methyl-5-(piperidin-3-yl)-1,2,4-oxadiazole] the “hippocampal IP response” value [1] was “causes an increase in the hippocampal IP response”, the “huM1/A9L Smax” value ([2]; percentage of maximal stimulation by carbachol) was 108% and the “huM1/A9L ED50 relative to CCh” value ([2]; potency relative to carbachol) was “+ (potency 2-10x CCh)”. The “Climbing Mean” value ([3]; 82 (0.1 mg/kg) + APO) was 8.9 s, the “Climbing Mean” value ([3]; 82 + APO + N-Methyl Scopolamine (0.3 mg/kg)) was 12.3 s and the “Climbing Mean” value ([3]; 82 + APO + scopolamine (0.3 mg/kg)) was 47.0 s. For the same compound, the “activity in the apomorphine induced climbing model” value ([3]; mice, sc) was “highly active and highly potent”, the “potency in inhibiting climbing compared with haloperidol” value ([3]; mice, sc) was “equipotent to haloperidol” and the “reduction of the concentration of A-beta 1-40” value [4] was “approximately 40%”. The “reduction of the concentration of A-beta 1-42” value [4] was “approximately 40%”, the “extent of metabolism in rat liver microsomes” value [5] was “far more stable than compounds 126 and 127” and the “extent of metabolism in human liver microsomes” value [6] was “metabolized significantly less in human liver microsomes than in rat liver microsomes”. For the same compound, the Brain/plasma ratio [7] was 2.38 and the Kp at 1 hour (in vivo) was 2.38.
